Values of other authors as cited in PMC11292818 (ACS Omega, 2024).

Biological target: acetylcholinesterase (AChE) (Homo sapiens, UniProt P22303)
Details: read-out: IC50 against acetylcholinesterase

Chain of acetylcholinesterase (AChE) (P22303 32-614, species assumed): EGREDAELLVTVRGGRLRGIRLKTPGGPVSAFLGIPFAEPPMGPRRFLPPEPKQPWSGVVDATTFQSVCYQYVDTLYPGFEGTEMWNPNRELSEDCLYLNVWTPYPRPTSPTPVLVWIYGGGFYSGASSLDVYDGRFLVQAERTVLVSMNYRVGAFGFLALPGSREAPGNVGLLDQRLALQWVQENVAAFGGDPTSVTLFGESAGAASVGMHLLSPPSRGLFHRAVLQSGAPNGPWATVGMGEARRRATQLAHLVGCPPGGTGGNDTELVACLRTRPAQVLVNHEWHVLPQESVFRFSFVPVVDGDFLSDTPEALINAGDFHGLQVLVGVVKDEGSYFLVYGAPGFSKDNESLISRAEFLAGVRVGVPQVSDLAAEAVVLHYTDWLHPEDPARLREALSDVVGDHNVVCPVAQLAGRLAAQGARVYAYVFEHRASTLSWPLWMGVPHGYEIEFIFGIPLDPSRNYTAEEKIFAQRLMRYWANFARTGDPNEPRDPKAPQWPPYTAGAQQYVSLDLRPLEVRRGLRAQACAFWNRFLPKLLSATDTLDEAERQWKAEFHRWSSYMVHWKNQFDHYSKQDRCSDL

In the case of `CC(C)=CCc1c(O)ccc(C(=O)/C=C/c2ccc(O)cc2)c1O` [Compound 4, isobavachalcone], the IC50 is given as 18.3 µM.
In the case of `COc1cc(O)c(OC)c(O)c1C(=O)/C=C/c1ccccc1` [Compound 3, 2′,4′-dihydroxy-3′,6′-dimethoxychalcone], the IC50 is listed as 20.1 µM.
